Reference: PMC10165273, “Itch receptor MRGPRX4 interacts with the receptor activity–modifying proteins” (The Journal of Biological Chemistry, 2023)
Values after ≈ are worked out from the molar mass of the structure shown. Values joined by “and” are separate entries in the source; they are usually repeats but may differ in a detail not shown here. Identical values can stand only once. *1 amine or outer side, *2 acyl side, *3 side chain or, on linkers, in order; H or OH if unused. Where a SMILES comes first, the peptide text is derived from it. Bridges are numbered along the chain shown (N, C = ends). [ ]: non-standard residue; d: D form. X1 = CC(=O)NC(C(=O)OC(C(C)C)C(N[*:1])C(=O)[*:2])C(O)C(C)C; PhLac = O=C(O)[CH](O)Cc1ccccc1; NMeT = CN[CH](C(=O)O)[CH](C)O; NMeA = CN[CH](C)C(=O)O; NMeDha = C=C(NC)C(=O)O

Experiments:
[1] = tested on: mock-transfected HEK293T cells; assay: IP1 accumulation, mock-transfected cells; assay type: cell-based, human; parameters: IP1 Basal / IP1 span / IP1 Emax / IP1 accumulation, dose-response (Figure 1a) / IP1 accumulation with YM (Figure 1c) / IP1 accumulation: unit not given here; details: for IP1 Basal / IP1 Emax / IP1 span: Mock
Description: (§1) HEK293T cells were transfected with 1 pg/cell of MRGPRX4 DNA, and the amount of DNA was kept constant at 2 pg/cell with pcDNA3.1(+) empty vector, unless otherwise specified. Twenty four hours after transfection, IP1 assay was performed as previously described ([51]). When applicable, cells were treated with 1 μM YM254890 (YM) or different concentrations of U73122 for 1 h prior to addition of agonist or buffer. After incubation for 2 h, HTRF reagents and IP1 calibration standards were added and incubated for 2 h in the dark at room temperature. Time-resolved fluorescence signals were read on the BioTek Synergy NEO-TRF Hybrid multi-mode reader (BioTek Instruments). All data were carried out in three independent experiments with three technical replicate each.
(§2) Validation of CALCRL constructs was assayed by cotransfecting HEK293T cells with different tagged versions of CALCRL alone or with each RAMP and with the promiscuous Gqs5 Gq chimera protein, at a respective DNA ratio of 1:1:0.5. Gqs5 is an engineered Gq protein containing the last five amino acid residues of Gs, which allows Gs-coupled GPCRs to signal through Gq downstream signaling pathways ([55]). The homogenous transfection method described above was used for all DNA mixes. CALCRL:RAMP2:Gqs5-transfected cells served as positive control for RAMP functionality.
(§3) Data reduction, standard calibration, and transformation of HTRF data were performed as previously described ([51]). Normalized IP1 values were calculated relative to the unstimulated mock-transfected cells (set to 0%) and fully stimulated MRGPRX4 (alone if applicable) (set to 100%).

CALCRL = molecular target: T1, CALCRL (Homo sapiens, UniProt Q16602); assay: IP1 accumulation, CALCRL alone with Gqs5; assay type: cell-based
T1 construct: 5-HT3a receptor signal peptide (X1) (N); expressed in transfected cells; host or cells: HEK293T
T1 sequence (Q16602 23-461): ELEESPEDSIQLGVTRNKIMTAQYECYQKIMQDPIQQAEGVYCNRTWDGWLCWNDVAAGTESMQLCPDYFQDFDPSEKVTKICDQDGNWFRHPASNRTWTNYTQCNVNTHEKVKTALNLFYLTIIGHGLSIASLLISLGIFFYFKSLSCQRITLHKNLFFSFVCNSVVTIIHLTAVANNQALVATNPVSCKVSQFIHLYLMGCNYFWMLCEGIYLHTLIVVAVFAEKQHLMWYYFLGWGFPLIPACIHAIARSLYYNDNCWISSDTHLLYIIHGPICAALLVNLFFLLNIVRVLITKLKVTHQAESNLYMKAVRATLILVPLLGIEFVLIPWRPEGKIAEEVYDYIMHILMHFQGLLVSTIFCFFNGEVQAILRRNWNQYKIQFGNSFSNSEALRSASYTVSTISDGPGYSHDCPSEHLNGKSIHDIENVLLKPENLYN
Description: as §2, §3

CALCRL + RAMP3 = molecular target: T2, CALCRL + RAMP3 (Homo sapiens, UniProt O60896+Q16602); assay: IP1 accumulation, CALCRL with RAMP3 and Gqs5; assay type: cell-based
T2 construct: 5-HT3a receptor signal peptide (X1) (N); expressed in transfected cells; host or cells: HEK293T
T2 sequence (Q16602 23-461): as above
T2 sequence (O60896 28-148 limits assumed): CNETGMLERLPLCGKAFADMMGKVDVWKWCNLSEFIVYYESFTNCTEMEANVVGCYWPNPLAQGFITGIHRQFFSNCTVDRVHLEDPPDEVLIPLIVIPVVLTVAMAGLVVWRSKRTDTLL
Description: as §2, §3

MRGPRX4 = molecular target: T3, MRGPRX4 (Homo sapiens, UniProt Q96LA9); assay: IP1 accumulation HTRF assay, MRGPRX4; assay type: cell-based; parameters: key to IP1 Basal / IP1 accumulation with YM (Figure 1c) / response to agonist, MRGPRX4 / IP1 accumulation: % IP1: unstimulated mock-transfected = 0%, fully stimulated MRGPRX4 = 100%; details: for effect on nateglinide and DCA IP1 responses: inhibitor pretreatment 1 h (Fig. S1D-E); for effect on MRGPRX4 basal IP1 activity: no agonist (Figs. 1C and S1E); for IP1 accumulation with YM (Figure 1c): YM 1 µM, no agonist
T3 construct: expressed in transfected cells; host or cells: HEK293T
T3 sequence (Q96LA9 whole entry): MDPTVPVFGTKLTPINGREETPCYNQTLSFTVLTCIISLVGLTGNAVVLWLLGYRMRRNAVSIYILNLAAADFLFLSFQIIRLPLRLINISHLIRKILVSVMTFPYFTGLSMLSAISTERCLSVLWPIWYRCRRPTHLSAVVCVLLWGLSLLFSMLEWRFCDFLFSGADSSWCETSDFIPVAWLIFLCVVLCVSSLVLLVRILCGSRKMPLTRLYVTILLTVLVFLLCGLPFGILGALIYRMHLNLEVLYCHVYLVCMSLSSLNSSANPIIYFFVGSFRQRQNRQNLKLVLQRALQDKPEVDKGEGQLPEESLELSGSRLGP
Description: as §1
(§4) For characterization of the Tet-On Nluc-HT7-MRGPRX4-GFP10-1D4 construct, HEK293T cells were transfected as previously described with some modifications. Dox dose-response of NLuc-HT7-MRGPRX4-GFP10-1D4 DNA titration was assayed by transfecting HEK293T cells with either 1 or 2 pg/cell of NLuc-HT7-MRGPRX4-GFP10-1D4 construct. Receptor expression was induced 4 h after transfection with addition of different concentrations of dox for 20 h. For the RAMP DNA titration assay, cells were cotransfected with a constant amount of 1 pg/cell of NLuc-HT7-MRGPRX4-GFP10-1D4 DNA and 1, 0.75, 0.5, or 0 pg/cell of each HA-RAMP-OLLAS with the homogenous transfection method. Four hours after transfection, receptor expression was induced with addition of 1000 ng/ml dox. Twenty hours after induction, IP1 assay was performed.
as §3

Tet-On MRGPRX4 = assay: dox-induced total receptor expression, Nano-Glo luminescence; assay type: cell-based, human; details: normalized total luminescence (Fig. S5I); for EC50: Homo sapiens
Description: as §4
HEK293T cells were transfected with 1 pg/cell of Tet-On FLAG-NLuc-HT7-MRGPRX4-GFP10-1D4 alone or coexpressed with 0.7, 0.5, 0.3, or 0.1 pg/cell of each RAMP, and expression was induced 4 h after transfection with 1000 ng/ml dox. HEK293T cells transfected with 1 pg/cell of Tet-On CALCRL alone or with 0.5 pg/cell of RAMP2 served as controls. Twenty hours after transfection, media was replaced with BRET buffer. First, the HT7-tagged GPCR was labeled with “pulse” of 100 nM HaloTag Alexa Fluor 660 (cell impermeable, emission 690 nm) for 2 h at 16 °C in the dark. Next, a chase step was performed by adding 100 nM HaloTag 618 (cell permeable, emission 620 nm) for 2 h at 16 °C in the dark. Lastly, Nano-Glo Luciferase assay reagent was prepared per manufacturer’s instructions. Optimal dosage of dox was determined by selecting the concentration at the plateau from a dox dose-response experiment, in which dox-induced expression was assayed with the additional of Nano-Glo Luciferase assay reagent (Fig. S5I).
Data were acquired by measuring the luminescence at 460, 618, and 690 nm in kinetics mode on a SpectraMax i3X at 37 °C. The obtained emission intensity values were corrected, normalized, plotted against each other, and fitted to a linear equation to generate a scaling factor that was then used to calculate and graph the percentage surface labeling. Experiments were conducted in biological triplicate with three technical replicates each. The corrected 690/460 BRET ratio was normalized to the mean of MRGPRX4 alone (+dox). Similarly, total expression was normalized to the mean of the 460 nm luminescence for MRGPRX4 alone (+dox).

[2] = HA-CALCRL-1D4 series (Fig. S4J-L)
[3] = HA-CALCRL-GFP10-1D4 series (Fig. S4G-I)
[4] = HA-CALCRL-1D4 alone (Fig. S4J-L)
[5] = HA-CALCRL-GFP10-1D4 alone (Fig. S4G-I)
[6] = HA-CALCRL-1D4 + FLAG-RAMP3-OLLAS (Fig. S4J-L)
[7] = HA-CALCRL-1D4 + HA-RAMP3-OLLAS (Fig. S4J-L)
[8] = HA-CALCRL-GFP10-1D4 + FLAG-RAMP3-OLLAS (Fig. S4G-I)
[9] = HA-CALCRL-GFP10-1D4 + HA-RAMP3-OLLAS (Fig. S4G-I)
[10] = Tet-On MRGPRX4+RAMP2 (DNA ratio 1:0.5)

SMILES: CC[C@H](C)[C@H](NC(=O)[C@H](CCC(N)=O)NC(=O)[C@H](Cc1c[nH]cn1)NC(=O)[C@H](C)NC(=O)[C@H](CC(C)C)NC(=O)[C@H](CCCCN)NC(=O)[C@H](CCC(N)=O)NC(=O)[C@@H](NC(=O)[C@@H](NC(=O)[C@@H]1CSSC[C@H](NC(=O)CNC(=O)[C@H](Cc2ccccc2)NC(=O)[C@H](CO)NC(=O)[C@H](CCCNC(=N)N)NC(=O)[C@H](CC(C)C)NC(=O)CNC(=O)[C@H](CCC(N)=O)NC(=O)[C@H](Cc2ccccc2)NC(=O)[C@H](CC(N)=O)NC(=O)[C@H](CC(N)=O)NC(=O)[C@H](CCSC)NC(=O)[C@H](CO)NC(=O)[C@H](CCC(N)=O)NC(=O)[C@H](CCCNC(=N)N)NC(=O)[C@@H](N)Cc2ccc(O)cc2)C(=O)N[C@@H](CCCNC(=N)N)C(=O)N[C@@H](Cc2ccccc2)C(=O)NCC(=O)N[C@@H]([C@@H](C)O)C(=O)N1)[C@@H](C)O)C(C)C)C(=O)N[C@@H](Cc1ccc(O)cc1)C(=O)N[C@@H](CCC(N)=O)C(=O)N[C@@H](Cc1ccccc1)C(=O)N[C@H](C(=O)N[C@@H](CC(=O)O)C(=O)N[C@@H](CCCCN)C(=O)N[C@@H](CC(=O)O)C(=O)N[C@@H](CCCCN)C(=O)N[C@@H](CC(=O)O)C(=O)N[C@@H](CC(N)=O)C(=O)N[C@H](C(=O)N[C@@H](C)C(=O)N1CCC[C@H]1C(=O)N[C@@H](CCCNC(=N)N)C(=O)N[C@@H](CO)C(=O)N[C@@H](CCCCN)C(=O)N[C@H](C(=O)N[C@@H](CO)C(=O)N1CCC[C@H]1C(=O)N[C@@H](CCC(N)=O)C(=O)NCC(=O)N[C@@H](Cc1ccc(O)cc1)C(N)=O)[C@@H](C)CC)C(C)C)[C@@H](C)O [Adrenomedullin]
- IP1 Basal [1, 2]: 0.9133
- IP1 Emax [1, 2]: 0.05397
- IP1 span [1, 2]: -0.8593
- IP1 Basal [1, 3]: 0.1993
- IP1 Emax [1, 3]: 11.54
- IP1 span [1, 3]: 11.34
- IP1 Basal (CALCRL; [4]): 11.35
- IP1 span (CALCRL; [4]): Unstable
- Emax (CALCRL; [5]): 10.5%
- IP1 Basal (CALCRL; [5]): 4.246
- Span (CALCRL; [5]): 6.24%
- Emax (CALCRL + RAMP3; [6]): 96%
- IP1 Basal (CALCRL + RAMP3; [6]): 9.152
- IP1 span (CALCRL + RAMP3; [6]): 86.8%
- Emax (CALCRL + RAMP3; [7]): 108%
- IP1 Basal (CALCRL + RAMP3; [7]): 8.590
- IP1 span (CALCRL + RAMP3; [7]): 99.5%
- Emax (CALCRL + RAMP3; [8]): 84.9%
- IP1 Basal (CALCRL + RAMP3; [8]): 11.09
- IP1 span (CALCRL + RAMP3; [8]): 73.8%
- Emax (CALCRL + RAMP3; [9]): 102%
- IP1 Basal (CALCRL + RAMP3; [9]): 9.590
- IP1 span (CALCRL + RAMP3; [9]): 92%

SMILES: COc1ccc2c(c1)CC[C@@H]1[C@@H]2CC[C@]2(C)[C@@H](NCCCCCCN3C(=O)C=CC3=O)CC[C@@H]12 [U73122]
- IP1 accumulation (MRGPRX4; MRGX4, Basal, U73122 30uM, Fig S1e): 3.194 and 5.28
- effect on nateglinide and DCA IP1 responses (MRGPRX4): inhibited
- effect on MRGPRX4 basal IP1 activity (MRGPRX4): abolished

SMILES: C=C1C(=O)NC(C)C(=O)N(C)C(C)C(=O)NC(C(OC(=O)C(NC(C)=O)C(O)C(C)C)C(C)C)C(=O)N(C)C(C(C)OC)C(=O)OC(C)C(NC(C)=O)C(=O)OC(Cc2ccccc2)C(=O)N1C (centres unmarked) [YM254890] (Ac-T[PhLac][NMeDha]A[NMeA][X1][NMeT](Me); ester 1-C; configuration not given here)
- IP1 accumulation with YM (Figure 1c) (MRGPRX4; MRGPRX4 0.125 pg DNA/cell): 1.405
- IP1 accumulation with YM (Figure 1c) (MRGPRX4; MRGPRX4 0.25 pg DNA/cell): 1.309
- IP1 accumulation with YM (Figure 1c) (MRGPRX4; MRGPRX4 0.5 pg DNA/cell): 1.374
- IP1 accumulation with YM (Figure 1c) (MRGPRX4; MRGPRX4 1 pg DNA/cell): 1.6019
- IP1 accumulation with YM (Figure 1c) (MRGPRX4; MRGPRX4 2 pg DNA/cell): 1.692
- effect on nateglinide and DCA IP1 responses (MRGPRX4): inhibited
- effect on MRGPRX4 basal IP1 activity (MRGPRX4): abolished
- IP1 accumulation with YM (Figure 1c) ([1]; YM 1 µM, MRGPRX4 0 pg DNA/cell, no agonist): 1.719

SMILES: C[C@H]1c2cccc(O)c2C(=O)C2=C(O)[C@]3(O)C(=O)C(C(N)=O)=C(O)[C@@H](N(C)C)[C@@H]3[C@@H](O)[C@@H]21 [dox, doxycycline]
- EC50 (Tet-On MRGPRX4; [10]): 8.07 ng/mL
- EC50 (Tet-On MRGPRX4; Tet-On MRGPRX4 alone): 4.05 ng/mL (≈ 9.1 nM)
- total expression Basal (Tet-On MRGPRX4; [10]): 0.003719
- total expression Emax (Tet-On MRGPRX4; [10]): 0.7930
- total expression logEC50 (Tet-On MRGPRX4; [10]): 0.9067
- total expression span (Tet-On MRGPRX4; [10]): 0.7893
- total expression Basal (Tet-On MRGPRX4; Tet-On MRGPRX4 alone): 0.009273
- total expression Emax (Tet-On MRGPRX4; Tet-On MRGPRX4 alone): 0.9497
- total expression logEC50 (Tet-On MRGPRX4; Tet-On MRGPRX4 alone): 0.6070
- total expression span (Tet-On MRGPRX4; Tet-On MRGPRX4 alone): 0.9404
